Source: BindingDB's records for doi:10.7270/Q2W957K6 (Pcmd, 2008)
Counter-ions that a name gives are not always drawn.

What follows are compounds tested against Coagulation factor XI (Homo sapiens, UniProt P03951) (assay: human FXIa inhibitor potency, dose response, biochemical (AID 679)).
Coagulation factor XI, sequence (P03951 19-387 limits assumed): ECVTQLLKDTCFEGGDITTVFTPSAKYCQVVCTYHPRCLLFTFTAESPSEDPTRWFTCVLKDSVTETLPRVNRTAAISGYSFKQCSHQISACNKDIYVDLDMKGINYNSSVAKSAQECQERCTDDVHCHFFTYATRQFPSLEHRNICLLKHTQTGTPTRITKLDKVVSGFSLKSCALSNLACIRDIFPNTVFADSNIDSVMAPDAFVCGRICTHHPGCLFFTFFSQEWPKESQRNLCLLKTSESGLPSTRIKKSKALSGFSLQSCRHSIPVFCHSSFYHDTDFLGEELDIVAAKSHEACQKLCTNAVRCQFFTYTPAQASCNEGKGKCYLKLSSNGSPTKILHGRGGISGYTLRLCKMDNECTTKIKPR
Coagulation factor XI, sequence (P03951 388-625 limits assumed): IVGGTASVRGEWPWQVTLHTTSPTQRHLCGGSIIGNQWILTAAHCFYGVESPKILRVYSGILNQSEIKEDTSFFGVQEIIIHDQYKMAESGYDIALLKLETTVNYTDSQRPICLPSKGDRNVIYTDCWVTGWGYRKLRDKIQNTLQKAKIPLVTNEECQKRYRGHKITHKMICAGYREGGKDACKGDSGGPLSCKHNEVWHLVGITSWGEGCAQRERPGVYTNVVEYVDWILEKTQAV
CCN(CC)CCNC(=O)C(C)c1nn(C)c(=O)c2ccccc12 (stereo not drawn) showed an IC50 greater than 50 µM. For N#Cc1cc2c(nc1SCC(=O)Nc1sc3c(c1C#N)CCC3)CCC2, the IC50 was greater than 50 µM. CN(CCOc1ccccc1)c1ccc(S(=O)(=O)N2CCCCC2)cn1 [N-methyl-N-(2-phenoxyethyl)-5-piperidin-1-ylsulfonylpyridin-2-amine] was tested, and the IC50 was greater than 50 µM. In the case of O=c1c(-c2cc3ccccc3o2)[n+]([O-])c2ccccc2n1OCc1ccccn1 [3-(1-benzofuran-2-yl)-1-(2-pyridinylmethoxy)-2(1H)-quinoxalinone 4-oxide], the IC50 is reported as greater than 50 µM. In the case of CCOC(=O)N=S(=O)(Oc1ccc([N+](=O)[O-])cc1)c1ccccc1 (stereo not drawn) [N-[(4-nitrophenoxy)-oxo-phenyl--sulfanylidene]carbamic acid ethyl ester], the IC50 is reported as greater than 50 µM. CCOC(=O)c1c(C)n(Cc2ccccc2)c2ccc(OCC(O)Cn3nc(C)cc3C)cc12 (stereo not drawn) [MLS000121399] was tested, and the IC50 was greater than 50 µM. Cc1ccc(NC(=O)CCn2cccc2)cc1 was tested, and the IC50 was greater than 50 µM. Cc1cc(=O)[nH]c(-n2[nH]c(C)cc2=O)n1 [6-methyl-2-(3-methyl-5-oxo-2,5-dihydro-1H-pyrazol-1-yl)-4(3H)-pyrimidinone] showed an IC50 greater than 50 µM. In the case of COCC/N=C1\Sc2nc3c(C)cccc3cc2CN1Cc1ccco1 [SMR000122349], the IC50 is reported as 0.745 µM. For COc1ccc(CC(=O)NCc2ccc3c(c2)OCO3)cc1, the IC50 was greater than 50 µM. Compound O=C(c1cn(-c2ccccc2)nc1-c1ccncc1)n1nnc2ccccc21 [1-{[1-phenyl-3-(4-pyridinyl)-1H-pyrazol-4-yl]carbonyl}-1H-1,2,3-benzotriazole] has an IC50 of 0.707 µM. For O=c1cccc2n1CC1CC2CN(S(=O)(=O)c2ccccc2)C1 (stereo not drawn) [3-Benzenesulfonyl-1,2,3,4,5,6-hexahydro-1,5-methano-pyrido[1,2-a][1,5]diazocin-8-one], the IC50 was greater than 50 µM. Work on O=C(c1cccc2ccccc12)n1nnc2ccccc21 [SMR000118701] yielded an IC50 greater than 50 µM. Compound Cc1ccc(C(=O)n2nc(-c3cccnc3)nc2N)cc1 [1-(4-methylbenzoyl)-3-(3-pyridinyl)-1H-1,2,4-triazol-5-amine] has an IC50 greater than 50 µM. Compound COc1cccc(C(=O)N(Cc2ccccc2)Cc2cc3cc4c(cc3nc2O)OCCO4)c1 [MLS000123157] has an IC50 of 10.4 µM. For CNCCCc1ccccc1, the IC50 was greater than 50 µM. In the case of Cc1cccc(NC(=O)c2snc3c(=O)[nH]cnc23)c1 [SMR000000702], the IC50 is reported as greater than 50 µM. Compound O=C(Oc1ccc2c(=O)c(Cl)coc2c1)c1cccnc1 [MLS000523505] has an IC50 greater than 50 µM. Work on O=C(Nc1ccccc1C(=O)N1CCOCC1)c1ccc(F)cc1 [4-fluoro-N-[2-[4-morpholinyl(oxo)methyl]phenyl]benzamide] yielded an IC50 of 21.4 µM. For O=C(Oc1cccc(-n2cnnn2)c1)c1ccco1 [SMR000117840], the IC50 was 4.06 µM. Compound Cc1cc(C)n2nc(C(=O)Nc3ccc4c(c3)OCO4)cc2n1 [SMR000144727] has an IC50 greater than 50 µM. COC(=O)c1[nH]c2ccc(Br)cc2c1NC(=O)CN1CCCc2ccccc21 [methyl 5-bromanyl-3-[2-(3,4-dihydro-2H-quinolin-1-yl)ethanoylamino]-1H-indole-2-carboxylate] showed an IC50 greater than 50 µM. Compound CCC(CO)NCc1ccc(OC2CCCC2)cc1 (stereo not drawn) [2-[(4-cyclopentyloxyphenyl)methylamino]butan-1-ol;hydrochloride] has an IC50 greater than 50 µM. In the case of CCn1c(SCC(=O)c2[nH]c(C)c(C(C)=O)c2C)nnc1-c1ccccc1 [SMR000153346], the IC50 is reported as 7.44 µM. In the case of CCOc1cccc2cc(C(N)=O)/c(=N/Cc3ccccc3)oc12 [8-ethoxy-2-(phenylmethyl)imino-chromene-3-carboxamide], the IC50 is reported as greater than 50 µM. With CCCC(=O)n1nc(-c2ccccc2)nc1SC [SMR000113998] the IC50 was greater than 50 µM. COc1cc(OC)cc(-c2nnc(SCc3cccc(C(=O)O)c3)o2)c1 [3-[[5-(3,5-dimethoxyphenyl)-1,3,4-oxadiazol-2-yl]sulfanylmethyl]benzoic acid] was tested, and the IC50 was greater than 50 µM. O=C(c1ccc(F)cc1)N1CCN(C(=O)c2cccnc2)CC1 [SMR000140978] gave an IC50 greater than 50 µM.
